From US6133279A, “Therapeutic agents for renal diseases and organ preservatives” (Chugai Seiyaku Kabushiki Kaisha, priority 1996, dated 2000)
Like-named read-outs stand apart in the source and are kept apart here.

Assays:
[1] = test system: puromycin-induced nephrosis model; test: Puromycin-induced nephrosis (1), preadministration (in vivo); parameters: species or system rat (male SD rats); settings: day 8; for Creatinine clearance: control 576 ± 148; for Creatinine: serum, control 0.93 ± 0.21
Experimental: Effect of the compound of the present invention on an in vivo renal disease was studied using a puromycin-induced nephrosis model.
A puromycin-induced renal failure model was prepared from rats in groups of 5-8 each (6 week-old male SD rats) fed with high-fat diet. High-fat diet feeding was started by free access to high-fat diet (cholesterol level 1.25%) from 7 days before puromycin treatment. Puromycin (puromycin aminonucleoside, SIGMA Chemical Co.) treatment was performed by intraperitoneal administration at a dose of 100 mg/kg. The test compound was administered as a solution in soybean oil via oral route (4 ml/kg). Control group was orally administered soybean oil alone. The administration of compound was started from 3 days before the puromycin treatment once a day. After the puromycin treatment, the oral administration of the compound was continued.
Renal functions were determined by using urine and blood samples collected on day 8 after the puromycin treatment. Volume of urine and the creatinine levels in serum and urine were evaluated to calculate creatinine clearance as an indication of renal functions.

[2] = test system: puromycin-induced nephrosis model; test: Puromycin-induced nephrosis (2), postadministration (in vivo); parameters: species or system rat (male SD rats); settings: 200 mg/kg oral once a day from the day following puromycin
Experimental: Effect of the compounds of the present invention on an in vivo renal disease was studied using a puromycin-induced nephrosis model. A puromycin-induced renal failure model was prepared from rats in groups of 5-8 each (6 week-old male SD rats) fed with high-fat diet. High-fat diet feeding was started by free access to high-fat diet (cholesterol level 1.25%) from 7 days before puromycin treatment. Puromycin (puromycin aminonucleoside, SIGMA Chemical Co.) treatment was performed by intraperitoneal administration at a dose of 100 mg/kg. Test compounds were administered as a solution in soybean oil via oral route (4 ml/kg). Control group was orally administered soybean oil alone. Probucol and a water-soluble α-tocopherol analogue, Trolox, were used as reference control compounds. The compounds were orally administered once a day from the following day of the puromycin treatment. Renal functions were determined by using urine and blood samples. The volume of urine, urea nitrogen level and creatinine levels of serum and urine were evaluated to calculate creatinine clearance as an indication of renal functions.

[3] = test system: ischemic acute renal failure model; test: Ischemic acute renal failure model, renal ischemia 30 minutes (in vivo); parameters: species or system rat (male SD rats); settings: 200 mg/kg oral once a day
Experimental: (§1) Effect of a compound of the present invention on an in vivo renal disease was studied using an ischemic acute renal failure model.
(§2) An ischemic acute renal failure model was prepared from in groups of 8 each rats (male SD rats, weight: 224-285 g) fed with high-fat diet. High-fat diet feeding was started by free access to high-fat diet (cholesterol level 1.25%) from 7 or 8 days prior to unilateral nephrectomy and left renal artery clamping. The test compound was administered as a solution in soybean oil via oral route (4 ml/kg). Control group was orally administered soybean oil alone. The administration of compound was started from 4 or 5 days before the ischemic treatment at a dose of 200 mg/kg once a day. After the ischemia treatment, the oral administration of the compound was continued at a frequency of once a day. The ischemic treatment was performed by removing the right kidney and clipping a renal artery of the left kidney for 30 or 60 minutes.
(§3) Renal functions after ischemic treatment were determined by using urine and blood samples daily collected. Urine volume and the creatinine level of serum and urine were evaluated to calculate creatinine clearance as an indication of renal functions. Influences of high-fat diet feeding were monitored by measuring serum cholesterol level.

[4] = test system: murine mesangial derived MES13 cells; test: Protective effect against oxidized LDL-induced injury of murine mesangial cells (in vitro); format: cell-based; settings: Mus musculus, MES13, 10 h, mean ± standard deviation, read-out: Cytoprotection rate (%)
Experimental: For the purpose of evaluating in vitro cytoprotective effect of the compounds of the present invention on mesangial cells, a cytoprotective study was performed using murine mesangial derived MES13 cells (ATCC-CRL-1927) injured by oxidized LDL.
Oxidized LDL was prepared in the same manner as in Test example 1. Cell culture was carried out by plating 2.5×10^4 cells/250 μl/well on a 48-well plate using FBS-free medium (mixture of DME medium and F12 medium in a ratio of 3:1). Test compounds were dissolved or suspended in ethanol and added to the wells in an amount of 1.25 μl/well to a concentration of 1 or 10 μM in each well. After 16 hours or immediately after the addition of the compounds, oxidized LDL was added to cells in an amount of 25 μl/well to a concentration of 91 μg/ml and the cells were cultured for 10 hours after addition of the oxidized LDL. Then, 150 μl/well of the culture medium were collected and measured for the lactate dehydrogenase level (LDL: SIGMA DIAGNOSTICS) having leaked in the medium.
The magnitude of cytoprotective effect was expressed as the cytoprotection rate which was determined by calculating the data assuming that the magnitude in wells containing oxidized LDL is 0% and that the magnitude in containing saline is 100%.

[5] = test system: ischemic acute renal failure model; test: Ischemic acute renal failure model, renal ischemia 60 minutes (in vivo); parameters: species or system rat (male SD rats); settings: 200 mg/kg oral once a day
Experimental: as §1, §2, §3

[6] = 20 mg/kg oral once a day from 3 days before puromycin
[7] = 200 mg/kg oral once a day from 3 days before puromycin, P < 0.05
[8] = compound added 16 hours before adding oxidized LDL
[9] = compound added immediately before adding oxidized LDL

CCCCCC1(CCCCC)Cc2c(cc(C(C)(C)C)c(O)c2C(C)(C)C)O1 [Example 36, 4,6-Di-t-butyl-2,2-di-n-pentyl-5-hydroxy-2,3-dihydrobenzofuran]
Creatinine clearance [1, 6]: 724 ± 176 mL/day
Creatinine clearance [1, 7]: 1055 ± 482 mL/day
Creatinine [1, 6]: 0.71 ± 0.14 mg/dL
Creatinine [1, 7]: 0.59 ± 0.23 mg/dL
Creatinine ([2]; control 0.82 ± 0.07): 0.75 ± 0.11 mg/dL
Urine nitrogen ([2]; control 30.74 ± 10.95): 24.57 ± 10.68 mg/dL
Creatinine clearance ([2]; control 824 ± 108): 837 ± 205 mL/day
Creatinine ([3]; 1 day after ischemia (30 minutes), control 1.73 ± 0.73, P < 0.05): 1.06 ± 0.24 mg/dL
Creatinine clearance ([3]; 1 day after ischemia (30 minutes), control 632 ± 167, P < 0.05): 934 ± 253 mL/day
Creatinine ([3]; 2 days after ischemia (30 minutes), control 1.84 ± 1.40): 0.96 ± 0.23 mg/dL
Creatinine clearance ([3]; 2 days after ischemia (30 minutes), control 678 ± 277, P < 0.05): 1095 ± 325 mL/day
Creatinine ([3]; 3 days after ischemia (30 minutes), control 2.19 ± 2.34): 1.05 ± 0.26 mg/dL
inhibition at 1 µM [4, 8]: 9.7 ± 1.8%
inhibition at 1 µM [4, 9]: 2.7 ± 0.7%
inhibition at 10 µM [4, 8]: 43.5 ± 0.5%
inhibition at 10 µM [4, 9]: 40 ± 3.5%
Creatinine ([5]; 1 day after ischemia (60 minutes), control 3.89 ± 0.77, P < 0.01): 2.81 ± 0.42 mg/dL
Creatinine clearance ([5]; 1 day after ischemia (60 minutes), control 276 ± 118, P < 0.05): 478 ± 171 mL/day
Creatinine ([5]; 2 days after ischemia (60 minutes), control 3.33 ± 1.90): 1.94 ± 0.30 mg/dL
Creatinine clearance ([5]; 2 days after ischemia (60 minutes), control 363 ± 140, P < 0.01): 594 ± 123 mL/day
Creatinine ([5]; 3 days after ischemia (60 minutes), control 3.19 ± 2.19): 1.86 ± 0.27 mg/dL
